Tests used:
[1] = target: T1, recombinant human (rh) KLK5 protease (Homo sapiens, UniProt Q9Y337); experiment: Enzymatic activity of Kallikrein 5 (KLK5), fluorogenic peptide substrate Boc-V-P-R-AMC; assay type: biochemical; conditions: for KLK5 activity compared to that of salicylic acid: relative to salicylic acid; for stimulation of KLK5 enzymatic activity: rhKLK5 pre-incubated with test compound 60 seconds, rate of substrate cleavage
T1 construct: purchased R&D Systems 1108-SE
T1 sequence (Q9Y337 23-293): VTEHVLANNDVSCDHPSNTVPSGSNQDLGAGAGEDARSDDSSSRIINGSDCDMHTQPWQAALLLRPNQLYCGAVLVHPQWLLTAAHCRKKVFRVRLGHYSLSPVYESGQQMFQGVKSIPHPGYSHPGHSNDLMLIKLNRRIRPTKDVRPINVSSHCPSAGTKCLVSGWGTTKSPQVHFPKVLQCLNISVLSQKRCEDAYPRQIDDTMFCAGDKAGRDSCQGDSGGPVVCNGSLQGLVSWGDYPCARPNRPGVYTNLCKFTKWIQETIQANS
Excerpt: In the stratum corneum, skin's outermost layer, cell-to-cell cohesion depends primarily on proteins known as the corneodesmosomes. During skin remodeling and renewal dead cells are shed from the skin surface by the action of native proteases that break down the corneodesmosomes. […] Hypothetically, up-regulation of the activities of these proteases using different active candidates could be utilized to increase the rate of shedding of dead skin, thus providing a natural means for skin exfoliation. To this end, the enzymatic activity of a member of the KLK family, recombinant human (rh) KLK5, was monitored following pre-incubation with actives and measuring the rate of peptide bond cleavage of a synthetic substrate.
Enzymatic activity of KLK5 was measured by incubating recombinant human (rh) KLK5 protease (R&D Systems, Cat No. 1108-SE) with a specific fluorogenic peptide substrate Boc-V-P-R-AMC (R& D Systems, Cat No. ES011). The substrate is conjugated to a quenched fluorescent group. Upon cleavage of the adjacent peptide bond, the fluorescent signal is released, resulting in a measurable emission at 535 nm when excited at 340 nm wavelength. Increase in fluorescence reading indicates an increase in rhKLK5 activity. The test compounds were reacted with recombinant rhKLK5 protease for 60 seconds followed by addition of Boc-V-P-R-AMC Fluorogenic Peptide Substrate. After 60 seconds of incubation, fluorescence was measured at 340 nm (Excitation wavelength) and […] (Emission wavelength) every 1 minute for 7 minutes. Rate (kinetics) of enzyme activity was calculated as follows: Rate of enzyme activity=Change of fluorescent reading (after background correction)/Change of reaction time (min). Percent change of activity due to a test compound was calculated by comparing rate of enzyme activity in the presence of the test compound to that of a control without the test compound and statistical significance was calculated using a t-test. Additionally, the rate of activity of the compounds was compared to that of salicylic acid.

[2] = Skin PAMPA parallel artificial membrane penetration assay; assay type: in vitro ADME; conditions: donor pH 4.25, acceptor pH 7.4, 50 nM, two hours incubation; relative to salicylic acid
Protocol: Several salicylic acid derivatives were assessed for their ability to penetrate skin. Each of the compounds was formulated in an aqueous buffer, with a final pH of 4.25 at a concentration of 50 nM. The skin permeability of the compounds was measured using a high throughput transdermal permeability model, the parallel artificial membrane penetration assay (Skin PAMPA™), which uses a skin mimetic artificial membrane that simulates the barrier properties of the strateum corneum.
Briefly, the Skin PAMPA™ assay is a sandwich assay that utilizes two 96-well plate assemblies, one of which acts as the acceptor chambers (comprising a buffer), and one of which acts as the donor chambers (comprising a buffer and the compound to be tested). […] After an incubation period, the donor and acceptor chambers are analyzed for the amount of compound present.
In the current experiments, the acceptor chamber included an acceptor solution made from Prisma™ HT buffer solution (Pion, Inc.) that was adjusted to a pH of 7.4±0.05 using 1.0 M NaOH, and the donor chamber included a donor solution made from Prisma™ HT buffer solution (Pion, Inc.) that was adjusted to a pH of 4.25±0.05 using 1.0 M NaOH. […] Effective permeability was then calculated by the same method as Sinko et al., Eur. J. Pharm. […]

SMILES | KLK5 activity compared to that of salicylic acid [1] | stimulation of KLK5 enzymatic activity [1] | skin permeability (effective permeability) [2]
CC(C)c1cc(O)c(C(=O)O)c(C(C)C)c1 [Compound A, 4,6-diisopropyl salicylic acid] | superior KLK5 activity as compared to salicylic acid | potent stimulators of KLK5 | highest permeability
CC(C)(C)c1cc(O)c(C(=O)O)c(C(C)(C)C)c1 [Compound B, 4,6-di-tert-butyl salicylic acid] | superior KLK5 activity as compared to salicylic acid | potent stimulators of KLK5 | highest permeability

Source: patent US20150152035A1, “COSMETIC USE OF SALICYLIC ACID DERIVATIVES” (Avon Products, Inc,, priority 2013, published 2015)
